Like-named read-outs stand apart in the source and are kept apart here.
What was measured:
human salivary TSPO = biological target: T1, human salivary TSPO (Homo sapiens, UniProt P30536); assay: Competition of TSPO ligands with [3H]PK11195 binding in human saliva; details: for binding affinity lower than that of PK11195: relative to PK11195
T1 construct: from tissue; host or cells: cells pelleted from human saliva samples (volunteers; smokers and non-smokers)
Experimental: (§1) After 80 minutes of incubation at 4° C., the samples were filtered through Whatman CF/C filters using a vacuum system, washed three times with 4 ml of 5 mM ice-cold phosphate buffer and placed in vials containing 4 ml of Opti-Fluor. Radioactivity was counted after 12 hours with a liquid scintillation analyzer. Specific binding was obtained by subtracting non specific binding from total binding.

[1] = biological target: T2, TSPO receptors in SCC-25 cell line (Homo sapiens, UniProt P30536); assay: Displacement of [3H]PK11195 from TSPO receptors in SCC-25 cells; type: binding; details: for potency in displacing [3H]PK11195, fold lower than PK11195: SCC-25 membrane, relative to PK11195
T2 construct: endogenous in cells; host or cells: SCC-25
Experimental: (§2) Cells were scraped from the culture dishes, washed with phosphate-buffered saline (PBS), and centrifuged at 1200 g for 10 minutes. Then the cell pellets were re-suspended in 1 mL of 50 mM phosphate buffer, pH 7.4, and centrifuged at 1200 g for 10 minutes. […] After incubation for 80 minutes at room temperature, samples were filtered under vacuum over Whatman GF/B filters and washed three times with phosphate buffer. Filters were placed in vials containing 4 mL of Opti-Fluor (Packard, Groningen, The Netherlands) and counted for radioactivity in a scintillation counter after 12 hours. The maximal number of binding sites (Bmax) and equilibrium dissociation constants were calculated from the saturation curve of [^3H]

H1299 lung cancer cells = assay: Survival of H1299 cells exposed to cigarette smoke with/without saliva; type: cell-based, human; details: for effect on survival of H1299 cells exposed to CS (in words): CS + 30% saliva
Experimental: Four control groups, not exposed to tobacco smoke (referred to herein as TS or alternatively, as CS, standing for “cigarette smoke”) were compared to four study groups (similar groups which were also exposed to CS), as detailed hereinafter. The four control groups included the following: a group where the cells were incubated in medium alone and exposed to air (M), a group where the cells were incubated in medium supplemented with whole saliva and exposed to air (M+saliva), a group where the cells where incubated in medium and exposed to CS (M+CS) and a group where the cells were incubated in medium supplemented with saliva and exposed to CS (M+saliva+CS).
During smoke exposure, the cells were put into a smoking sealed chamber (33.5 cm^3) with CS pressure of 0.3 Bar. Control cells were subjected to the same procedures, but exposed only to fresh air. Cells were exposed to CS for one “puff” every 20 minutes for a 2 hours (120 minutes) period (unless indicated otherwise). Cells exposed to air served as control. Cells were used when it becomes confluent and the medium (with/without saliva) volume was compatibly to the dish in use.
In order to examine the possible effect of TSPO receptor ligands on the survival rate of cells exposed to both CS and saliva, the benzodiazepine TSPO ligand, diazepam, was added to cells prior to exposing the cells to CS+30% saliva.

[2] = biological target: T3, TSPO receptors in SCC-15 cell line (Homo sapiens, UniProt P30536); assay: Displacement of [3H]PK11195 from TSPO receptors in SCC-15 cells; type: binding
T3 construct: endogenous in cells; host or cells: SCC-15
Experimental: as §2

TSPO receptor in saliva [3] = biological target: T4, TSPO receptor in saliva (Homo sapiens, UniProt P30536); assay: [3H]PK11195 saturation binding with Scatchard analysis in human saliva; details: n=10
T4 construct: from tissue; host or cells: cells pelleted from human saliva samples (volunteers; smokers and non-smokers)
Experimental: as §1

[4] = biological target: T5, TSPO receptors in human tongue cancer cell line SCC-25 (Homo sapiens, UniProt P30536); assay: [3H]PK11195 saturation binding (Scatchard) in SCC-25 cells
T5 construct: Cells were scraped from the culture dishes, washed with phosphate-buffered saline (PBS), and centrifuged; endogenous in cells; host or cells: SCC-25
Experimental: as §2

[5] = biological target: T6, TSPO receptors in human tongue cancer cell line SCC-15 (Homo sapiens, UniProt P30536); assay: [3H]PK11195 saturation binding (Scatchard) in SCC-15 cells
T6 construct: endogenous in cells; host or cells: SCC-15
Experimental: as §2

[6] = biological target: T7, TSPO receptors in H1299 lung cancer cells (Homo sapiens, UniProt P30536); assay: [3H]PK11195 saturation binding (Scatchard) in H1299 cells
T7 construct: Cells were scraped from the culture dishes, washed with phosphate-buffered saline (PBS), and centrifuged; endogenous in cells; host or cells: H1299
Experimental: as §2

TSPO receptor in saliva [7] = biological target: T4, TSPO receptor in saliva; assay: [3H]PK11195 binding in saliva from heavy smokers and non-smokers; details: for mean TSPO binding: 6 nM ligand
Experimental: as §1
The effect of long term CS-exposure on the salivary TSPO, of heavy smokers, was investigated. Saliva samples were collected from heavy smokers (smokers group) and from a control group of non-smoking volunteers (control group), and the total protein expression level as well as TSPO binding capacity was evaluated as follows.
The mean TSPO binding was calculated and found to be 53% lower in the smokers group, as compared to the control group (694±264; n=9 and 1,480±1,157; n=16, respectively; see, FIG. 7b). This statistically significant reduction (p<0.05) further supports the results obtained for the in-vitro exposure of saliva cells to CS (detailed above), and point to a CS-related reduced TSPO receptor binding capacity.

[8] = 10^-8 M, medium + 30% saliva, CS 120 minutes
[9] = inhibition of [3H]PK11195 binding, human saliva, four independent experiments, read-out: Ki
[10] = 50% inhibition of [3H]PK11195 binding, SCC-25, read-out: IC50
[11] = 50% inhibition of [3H]PK11195 binding, SCC-15, read-out: IC50

T4 sequence (P30536 whole entry): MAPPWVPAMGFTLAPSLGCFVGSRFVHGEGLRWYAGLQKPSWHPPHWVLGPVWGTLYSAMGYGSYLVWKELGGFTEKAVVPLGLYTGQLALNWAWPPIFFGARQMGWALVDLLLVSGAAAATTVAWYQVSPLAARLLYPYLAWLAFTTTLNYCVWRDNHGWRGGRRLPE
T1 sequence (P30536 whole entry): as above
T2 sequence (P30536 whole entry): as above
T3 sequence (P30536 whole entry): as above
T6 sequence (P30536 whole entry): as above
T5 sequence (P30536 whole entry): as above
T7 sequence (P30536 whole entry): as above

O=C1CN=C(c2ccccc2Cl)c2cc([N+](=O)[O-])ccc2N1 [Clonazepam] was tested, and the “affinity to TSPO (in words)” value (human salivary TSPO; human saliva) was “negligible affinity”, the “affinity for TSPO (in words)” value ([1]; SCC-25) was “negligible affinity” and the “effect on survival of H1299 cells exposed to CS (in words)” value (shortened to “effect on survival”) (H1299 lung cancer cells; 10^-7 M) was “No significant increase in survival levels”. For the same molecule, the “effect on survival” value (H1299 lung cancer cells; 10^-7 M, listed as clonazepam) was “not significantly altered”, the “effect on survival” value (H1299 lung cancer cells; 10^-8 M) was “did not increase the survival level” and the “decrease of cells survival” value (H1299 lung cancer cells; [8]) was 10.65%.
In the case of CN1C(=O)CN=C(c2ccccc2)c2cc(Cl)ccc21 [Diazepam], the Ki (human salivary TSPO) is reported as 4.5 µM, the “binding affinity lower than that of PK11195” value (human salivary TSPO; human saliva) is reported as “three orders of magnitude” and the IC50 [1] is reported as 14.2 ± 5.72 µM. For the same molecule, the “potency in displacing [3H]PK11195, fold lower than PK11195” value (from here on “potency … fold lower than PK11195”) [1] was 1580 times, the IC50 [2] was 14.1 ± 15.2 µM and the “effect on survival” value (H1299 lung cancer cells; 10^-7 M) was “significantly increased”. The “increase of cell survival” value (H1299 lung cancer cells; 10^-7 M, medium + 30% saliva, CS 120 minutes) was 16%, the “effect on survival” value (H1299 lung cancer cells; 10^-8 M) was “significantly increased” and the “increase of cell survival” value (H1299 lung cancer cells; [8]) was 17.4%.
CN1C(=O)CN=C(c2ccc(Cl)cc2)c2cc(Cl)ccc21 [Ro5-4864, 4-chlorodiazepam] was tested, and the “binding affinity lower than that of PK11195” value (human salivary TSPO; human saliva) was “two orders of magnitude”, the Ki (human salivary TSPO; [9]) was 0.5 µM and the IC50 [1, 10] was 0.666 ± 0.036 µM. For the same molecule, the “potency … fold lower than PK11195” value [1] was 74 times and the IC50 [2, 11] was 2.07 ± 1.55 µM.
In the case of CCCCCCN(CCCCCC)C(=O)Cc1c(-c2ccc(F)cc2)[nH]c2ccccc12 [FGIN-1-27], the “binding affinity lower than that of PK11195” value (human salivary TSPO; human saliva) is reported as “two orders of magnitude”, the Ki (human salivary TSPO; [9]) is reported as 0.15 µM and the IC50 [1, 10] is reported as 0.152 ± 0.019 µM. For the same molecule, the “potency … fold lower than PK11195” value [1] was 17 times and the IC50 [2, 11] was 0.164 µM.
In the case of CCC(C)N(C)C(=O)c1cc2ccccc2c(-c2ccccc2Cl)n1 (stereo not shown) [[^3H]PK11195], the “Bmax (maximal binding capacity)” value (TSPO receptor in saliva [3]) is reported as 6,471±1,584 fmol/mg protein, the “Bmax (maximal binding capacity)” value [4] is reported as 3133±643 fmoles/mg protein and the “non-specific binding as part of total binding” value [4] is reported as “a third”. For the same molecule, the Bmax [5] was 6956±5492 fmoles/mg protein, the “non-specific binding as part of total binding” value [5] was 25±3.2% and the “maximum amount of specifically bound ligand (Bmax)” value [6] was 3274±787 pmol/mg of protein. For the same molecule, the “mean TSPO binding” value (TSPO receptor in saliva [7]; control group (non-smokers), n=16) was 1,480±1,157, the “mean TSPO binding” value (TSPO receptor in saliva [7]; smokers group, n=9) was 694±264 and the “mean TSPO binding lower in smokers than control group” value (TSPO receptor in saliva [7]; smokers vs control group) was 53%.

Reference: patent US8685962B2 (priority 2007, dated 2014)
